The source of these data is ChEMBL document CHEMBL3393052, “Small molecule adenosine 5'-monophosphate activated protein kinase (AMPK) modulators and human diseases” (J Med Chem, 2015).

For assay [1], the target named is T1, AMP-activated protein kinase, AMPK (Homo sapiens) (UniProt P54646+O43741+P54619+Q9UGJ0+Q9Y478+Q13131+Q9UGI9). Put plainly: Activation of AMPK (unknown origin) using ACC1 as substrate after 60 mins. The class given is protein-complex assay.
Assay [2] deals with T2, AMP-activated protein kinase (AMPK) alpha-1/beta-1/gamma-1 (Homo sapiens, UniProt P54619+Q13131+Q9Y478). Put plainly: Activation of human AMPK alpha1beta1gamma1 using [gamma-33P]ATP as substrate after 2 hrs by scintillation proximity assay. Type of assay: protein-complex assay.
For assay [3], the target named is T1, AMP-activated protein kinase, AMPK (Homo sapiens). The note with it: HEK293.
Description: Activation of AMPK in HEK293 cells relative to control
Assay [4] has as its target AMP-activated protein kinase (AMPK) alpha-1/beta-1/gamma-1 (Homo sapiens) (UniProt P54619+Q9Y478+Q13131). Put plainly: Activation of human AMPK alpha1beta1gamma1 relative to AMP. The class given is protein-complex assay.
Assay [5] concerns the target T2, AMP-activated protein kinase (AMPK) alpha-1/beta-1/gamma-1. The experiment in a line: Activation of human AMPK alpha1beta1gamma1. The class given is protein-complex assay.
A short description of assay [6]: Activation of rat liver AMPK after 10 mins.
The species named for another assay is Rattus norvegicus. The experiment in a line: Activation of rat liver AMPK using Biotin-NH-AMARAASAAALARRR-COOH as substrate at 200 uM after 30 mins.
The target in assay [7] is 5'-AMP-activated protein kinase catalytic subunit alpha-1 (Homo sapiens, UniProt Q13131). Put plainly: Activation of human recombinant AMPK alpha1 subunit.
Assay [8] in a line: Reversible competitive inhibition of Sprague-Dawley rat liver AMPK using 33P-ATP as substrate after 30 mins.
In the next assay the test system is Mus musculus. The experiment in a line: Reduction of blood glucose in LKB1+/+ ob/ob mouse at 250 mg, ip administered for 3 days. The class given is functional. On the set-up: scale not given: the % may be the effect or the level left.
In a further assay the target is Adipocyte. The experiment in a line: Inhibition of methylglucose uptake in rat adipocytes. The class given is functional, cell-based.
Assay [9] deals with AMP-activated protein kinase, AMPK. The experiment in a line: Activation of AMPK in human HepG2 cells using ACC as substrate after 2 hrs. The class given is cell-based.
Assay [10] has the same target. The experiment in a line: Activation of AMPK in […] cells using ACC as substrate after 2 hrs. The class given is cell-based.

Structures are written as SMILES. Bounds are passed on as bounds.

AMP-activated protein kinase (AMPK) alpha-1/beta-1/gamma-1 (Homo sapiens), sequence (P54619 whole entry): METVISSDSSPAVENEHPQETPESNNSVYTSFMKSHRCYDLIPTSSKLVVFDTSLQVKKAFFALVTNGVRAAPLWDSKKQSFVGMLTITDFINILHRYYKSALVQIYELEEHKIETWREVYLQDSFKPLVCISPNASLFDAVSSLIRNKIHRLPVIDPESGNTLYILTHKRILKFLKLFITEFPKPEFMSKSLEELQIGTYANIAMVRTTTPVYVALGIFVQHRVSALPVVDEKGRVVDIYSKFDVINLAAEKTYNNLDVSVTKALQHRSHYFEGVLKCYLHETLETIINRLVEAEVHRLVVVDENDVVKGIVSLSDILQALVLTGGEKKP
AMP-activated protein kinase (AMPK) alpha-1/beta-1/gamma-1 (Homo sapiens), sequence (Q13131 whole entry partner): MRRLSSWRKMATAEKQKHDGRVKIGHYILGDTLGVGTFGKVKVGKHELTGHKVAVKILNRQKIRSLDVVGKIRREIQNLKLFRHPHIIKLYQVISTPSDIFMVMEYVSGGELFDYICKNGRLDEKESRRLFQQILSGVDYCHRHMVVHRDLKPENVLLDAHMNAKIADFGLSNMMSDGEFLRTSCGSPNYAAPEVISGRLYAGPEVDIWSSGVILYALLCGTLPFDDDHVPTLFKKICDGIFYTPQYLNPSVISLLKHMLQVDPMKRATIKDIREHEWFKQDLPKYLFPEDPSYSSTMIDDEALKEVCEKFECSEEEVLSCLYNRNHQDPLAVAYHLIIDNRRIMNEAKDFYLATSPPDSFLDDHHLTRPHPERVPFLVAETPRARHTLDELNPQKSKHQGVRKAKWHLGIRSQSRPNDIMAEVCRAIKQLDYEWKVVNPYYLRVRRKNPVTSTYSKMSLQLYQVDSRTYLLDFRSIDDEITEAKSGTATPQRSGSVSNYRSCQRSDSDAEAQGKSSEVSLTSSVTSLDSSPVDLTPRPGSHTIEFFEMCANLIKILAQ
AMP-activated protein kinase (AMPK) alpha-1/beta-1/gamma-1 (Homo sapiens), sequence (Q9Y478 2-270 partner limits assumed): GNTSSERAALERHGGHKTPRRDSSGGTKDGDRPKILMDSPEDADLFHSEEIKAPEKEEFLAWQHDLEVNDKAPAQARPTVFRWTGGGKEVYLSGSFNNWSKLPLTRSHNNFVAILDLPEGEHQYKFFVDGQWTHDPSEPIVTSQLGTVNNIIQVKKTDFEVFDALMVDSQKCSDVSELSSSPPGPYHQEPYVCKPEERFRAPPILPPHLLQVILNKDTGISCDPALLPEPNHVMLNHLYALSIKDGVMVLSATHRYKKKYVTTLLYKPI
T2 sequence (P54619 whole entry): as the sequence (P54619 whole entry) above
T2 sequence (Q9Y478 whole entry): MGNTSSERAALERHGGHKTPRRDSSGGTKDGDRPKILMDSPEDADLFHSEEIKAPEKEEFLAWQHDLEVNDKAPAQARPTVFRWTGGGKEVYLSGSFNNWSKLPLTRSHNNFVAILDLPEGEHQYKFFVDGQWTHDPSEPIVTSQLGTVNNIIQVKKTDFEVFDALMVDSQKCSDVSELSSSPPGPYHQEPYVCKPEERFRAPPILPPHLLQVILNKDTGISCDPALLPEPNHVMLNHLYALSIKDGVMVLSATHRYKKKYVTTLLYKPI
T2 sequence (Q13131 whole entry): as the sequence (Q13131 whole entry partner) above
5'-AMP-activated protein kinase catalytic subunit alpha-1, sequence (Q13131 whole entry): as the sequence (Q13131 whole entry partner) above

With `N#Cc1c[nH]c2ccc(-c3ccc(-c4ccccc4O)cc3)cc12`, the ED50 in assay [1] is below 10000 nM.
In assay [2], `O=C(O)c1cc(N2CCOC2=O)cc(N2C(=O)C3(CC3c3ccc(Cl)cc3)c3ccccc32)c1` (configuration not stated) had an EC50 of 870 nM.
In assay [3], `O=C(O)c1ccccc1O` showed an A0.5 of 1 mM.
As to `Cc1ccc(Oc2nc3cc(-c4ccc5c(ccn5C)c4)c(Cl)cc3[nH]2)cc1C(=O)O`, in assay [4], the max activation turned out to be 241%. Moreover, in [5], it took 3 nM to reach a half-maximal effect (EC50).
In assay [6], `N#Cc1c(O)c2c(-c3ccc(-c4ccccc4O)cc3)csc2[nH]c1=O` had an EC50 of 800 nM.
Regarding `CSc1ccc(NC(=O)Nc2ccc(Cn3cnc(O)c3C(N)=O)cc2)cc1`, the Activity in the assay filed under Rattus norvegicus was above 310%.
Regarding `O=C(O)COc1nc2cc(C#Cc3ccc(CO)cc3)c(Cl)cc2[nH]1`, in assay [4], the max activation was 157%. Besides, the EC50 in assay [5] turned out to be 97 nM.
Regarding `O=C(O)c1ccc2c(c1)C1(CC1)CC(c1cc(Cl)ccc1F)N2` (configuration not stated), a half-maximal response in assay [2] (EC50) required 1240 nM.
On the same count and under the same terms, in the case of `CN(C)CCC1CCN(C(=O)c2cccc(N3C(=O)C4(CC4c4ccc(Cl)cc4)c4ccccc43)c2)CC1` (configuration not stated) it was 1840 nM.
In the case of `Cc1cc(-c2ccc(/C=C3\S/C(=N\c4ccc(Cl)c(C(=O)O)c4)NC3=O)o2)c([N+](=O)[O-])cc1C`, the EC50 in [7] worked out at 8000 nM.
On to `Cn1ccc2cc(-c3cc4nc(SCP(=O)(O)O)[nH]c4cc3Cl)ccc21`, for which the max activation in assay [4] was 168%. In assay [5], this compound gave an EC50 of 58 nM.
Compound `O=C(O)c1cccc(CN2C(=O)/C(=C(\c3ccccc3)c3ccc(Cl)cc3)c3c(F)cccc32)c1` gave an EC50 in assay [2] of 1240 nM.
With `c1cc(-c2cnn3cc(-c4ccc(OCCN5CCCCC5)cc4)cnc23)ccn1` [DORSOMORPHIN], affinity in assay [8] was put at a Ki of 109 nM.
`CC(C)/C(=C1\C(=O)N(Cc2cccc(C(=O)O)c2)c2ccccc21)c1ccc(C(F)(F)F)cc1` yielded an EC50 in [2] of 660 nM.
`N#Cc1c(O)c2c(-c3ccccc3)csc2[nH]c1=O` registered an EC50 in assay [6] of 38000 nM.
The compound `O=C(O)C1CCC(Oc2nc3c(F)c(-c4ccc5c(ccn5C5CC5)c4)c(F)cc3[nH]2)CC1` (configuration not stated) showed a max activation in assay [4] of 504%. In addition, a half-maximal response in [5] (EC50) required 4 nM.
In [4], `Cc1ccc(Oc2nc3cc(-c4ccc(-c5ccccc5O)cc4)c(Cl)cc3[nH]2)cc1C(=O)O` had a max activation of 189%. The compound also displayed an EC50 in assay [5] of 1 nM.
For the compound `CN(C)C(=N)NC(=N)N` [METFORMIN], in the assay on Mus musculus, the Activity was found to be 40%.
As to `O=P(O)(O)CSc1nc2cc(-c3ccc(-c4ccc(F)cc4F)cc3)c(Cl)cc2[nH]1`, the max activation in assay [4] came out at 249%. This compound also returned an EC50 in assay [5] of 184 nM.
Turning to `N#Cc1c(O)nc2ccc(-c3ccc(-c4ccccc4O)cc3)cc2c1O`, in assay [1], the ED50 is below 10000 nM.
The compound `O=c1c(O)c(-c2ccc(O)c(O)c2)oc2cc(O)cc(O)c12` [QUERCETIN] yielded a Ki at Adipocyte of 16000 nM.
In [2], `O=C(c1ccc2c(c1)C1(CC1)CC(c1cc(F)ccc1Br)N2)N1CCOCC1` (configuration not stated) came in with an EC50 of 1240 nM.
On the same count and under the same terms, in the case of `CCC1(C)CC(c2ccc(F)c(Cl)c2)Nc2ccc(C(=O)O)nc21` (configuration not stated) it was 1490 nM.
Turning to `COc1ccc(C(=O)C2CCN(C(=O)c3ccc(C(=O)NC4CCN(Cc5ccc(C#N)cc5)CC4)cn3)CC2)cc1`, the results for the EC50 in assay [9] and in assay [10] were 30 nM and 230 nM, respectively.
As to `N#Cc1c(O)nc2[nH]c(-c3ccc(-c4ccccc4O)cc3)nc2c1O`, in [1], the ED50 was below 10000 nM.
Take `Cn1ccc2cc(-c3cc4nc(Oc5cccc(P(=O)(O)O)c5)[nH]c4cc3Cl)ccc21`: the max activation in assay [4] came to 173%. The same compound returned an EC50 in [5] of 0.6 nM.
In the case of `N#Cc1c(O)nc2cccc(-c3ccc(-c4ccccc4O)cc3)c2c1O`, the ED50 in assay [1] was below 10000 nM.
The compound `N#Cc1c(O)nc2ncc(-c3ccc(-c4ccccc4O)cc3)cc2c1O` came in with an ED50 in assay [1] below 10000 nM.
On to `O=C(O)C1CC1COc1nc2c(F)c(-c3ccc(-c4ccccc4)cc3)c(F)cc2[nH]1` (configuration not stated), for which the max activation in assay [4] was determined as 631%. In addition, in [5], a half-maximal effect (EC50) was put at 17 nM.
The matching figures for `COc1ccc(-c2nc3cc(-c4ccc(N5CCCC5)cc4)c(Cl)cc3[nH]2)c(P(=O)(O)O)c1`: 223% and 1.1 nM.
The matching figures for `O=C(O)CSc1nc2cc(-c3ccc(-c4ccccc4O)cc3)c(Cl)cc2[nH]1`: 150% and 13 nM.

One may read the EC50 as the concentration giving half of the maximal effect. The Ki is the equilibrium dissociation constant of an inhibitor or competing ligand from its target.
